# Results as given in article PMC8698454, “Anti-Colonization Effect of Au Surfaces with Self-Assembled Molecular Monolayers Functionalized with Antimicrobial Peptides on S. epidermidis” (Antibiotics, 2021).
# Read-outs that look alike come from different tables or passages of the source. Where a SMILES comes first, the peptide text is derived from it. [ ]: non-standard residue; d: D form. Bip = N[C@@H](Cc1ccc(-c2ccccc2)cc1)C(=O)O; Lys(N3) = [N-]=[N+]=NCCCC[C@H](N)C(=O)O
# What was measured:
# Type in all cases: cell-based
# [1] = tested on: Staphylococcus epidermidis 1457; details: for MIC S. epidermidis 1457: Table S3
# Experimental: (§1) The minimal inhibitory concentration (MIC) of peptides 1a, 1b, 2a, and 2b were determined by broth microdilution according to the Clinical Laboratory Standard Institute (CLSI) method […]-A9. The MICs of the peptides 1c, 1d, 2c, and 2d were determined by broth dilution according to the European Committee for Antimicrobial Susceptibility Testing (EUCAST). Final concentrations of 0.5-256 μg/mL were tested against a panel of reference bacteria-S. aureus (ATCC 9144), S. epidermidis (1457), E. coli (ATCC 25922), and P. aeruginosa (ATCC 27853). Each strain was tested in biological triplicate. The MIC values were defined as the lowest concentration of the peptides resulting in no visual growth.
# [2] = tested on: Staphylococcus aureus ATCC 9144; details: for Antimicrobial Activity (MIC) S. aureus: ATCC 9144; for MIC S. aureus ATCC 9144: Table S3
# Experimental: as §1
# [3] = tested on: Escherichia coli ATCC 25922; details: for Antimicrobial Activity (MIC) E. coli: ATCC 25922; for MIC E. coli ATCC 25922: Table S3
# Experimental: as §1
# [4] = tested on: Pseudomonas aeruginosa ATCC 27853; details: for Antimicrobial Activity (MIC) P. aeruginosa: ATCC 27853; for MIC P. aeruginosa ATCC 27853: Table S3
# Experimental: as §1
# [5] = technical replicate 1, biological replicate BR1
# [6] = technical replicate 1, biological replicate BR2
# [7] = technical replicate 1, biological replicate BR3
# [8] = technical replicate 2, biological replicate BR1
# [9] = technical replicate 2, biological replicate BR2
# [10] = technical replicate 2, biological replicate BR3
# [11] = technical replicate 3, biological replicate BR1
# [12] = technical replicate 3, biological replicate BR2
# [13] = technical replicate 3, biological replicate BR3
# [14] = strain 1457, broth microdilution CLSI M07-A9 (1a,1b,2a,2b) or broth dilution EUCAST (1c,1d,2c,2d), 0.5-256 µg/mL tested, biological triplicate, no visual growth
# [15] = broth microdilution CLSI M07-A9 (1a,1b,2a,2b) or broth dilution EUCAST (1c,1d,2c,2d), 0.5-256 µg/mL tested, biological triplicate, lowest concentration with no visual growth
# [16] = broth microdilution CLSI M07-A9 (1a,1b,2a,2b) or broth dilution EUCAST (1c,1d,2c,2d), 0.5-256 µg/mL tested, biological triplicate, no visual growth
Molecule,"MIC S. epidermidis 1457 [1, 5] [µg/mL]","MIC S. epidermidis 1457 [1, 6] [µg/mL]","MIC S. epidermidis 1457 [1, 7] [µg/mL]","MIC S. epidermidis 1457 [1, 8] [µg/mL]","MIC S. epidermidis 1457 [1, 9] [µg/mL]","MIC S. epidermidis 1457 [1, 10] [µg/mL]","MIC S. epidermidis 1457 [1, 11] [µg/mL]","MIC S. epidermidis 1457 [1, 12] [µg/mL]","MIC S. epidermidis 1457 [1, 13] [µg/mL]","MIC S. aureus ATCC 9144 [2, 5] [µg/mL]","MIC S. aureus ATCC 9144 [2, 6] [µg/mL]","MIC S. aureus ATCC 9144 [2, 7] [µg/mL]","MIC S. aureus ATCC 9144 [2, 8] [µg/mL]","MIC S. aureus ATCC 9144 [2, 9] [µg/mL]","MIC S. aureus ATCC 9144 [2, 10] [µg/mL]","MIC S. aureus ATCC 9144 [2, 11] [µg/mL]","MIC S. aureus ATCC 9144 [2, 12] [µg/mL]","MIC S. aureus ATCC 9144 [2, 13] [µg/mL]","MIC E. coli ATCC 25922 [3, 5] [µg/mL]","MIC E. coli ATCC 25922 [3, 6] [µg/mL]",further results
[N-]=[N+]=NCCCC[C@H](NC(=O)[C@H](Cc1ccccc1)NC(=O)[C@H](CCCNC(=N)N)NC(=O)[C@H](Cc1ccc(-c2ccccc2)cc1)NC(=O)[C@H](Cc1ccc(-c2ccccc2)cc1)NC(=O)[C@@H](N)CCCNC(=N)N)C(N)=O [2c] (H-R[Bip][Bip]RF[Lys(N3)]-NH2),8,4,8,4,4,8,4,4,8,8,4,8,8,8,8,8,4,8,8,8,"Antimicrobial Activity (MIC) S. epidermidis [1]; 1457: 4 µg/mL; Antimicrobial Activity (MIC) S. aureus [2]: 8 µg/mL; Antimicrobial Activity (MIC) E. coli [3]: 8 µg/mL; MIC E. coli ATCC 25922 [3, 7]: 16 µg/mL; MIC E. coli ATCC 25922 [3, 8]: 8 µg/mL; MIC E. coli ATCC 25922 [3, 9]: 8 µg/mL; MIC E. coli ATCC 25922 [3, 10]: 16 µg/mL; MIC E. coli ATCC 25922 [3, 11]: 8 µg/mL; MIC E. coli ATCC 25922 [3, 12]: 16 µg/mL; MIC E. coli ATCC 25922 [3, 13]: 8 µg/mL; Antimicrobial Activity (MIC) P. aeruginosa [4]: 16 µg/mL; MIC P. aeruginosa ATCC 27853 [4, 5]: 8 µg/mL; MIC P. aeruginosa ATCC 27853 [4, 6]: 8 µg/mL; MIC P. aeruginosa ATCC 27853 [4, 7]: 16 µg/mL; MIC P. aeruginosa ATCC 27853 [4, 8]: 16 µg/mL; MIC P. aeruginosa ATCC 27853 [4, 9]: 16 µg/mL; MIC P. aeruginosa ATCC 27853 [4, 10]: 16 µg/mL; MIC P. aeruginosa ATCC 27853 [4, 11]: 16 µg/mL; MIC P. aeruginosa ATCC 27853 [4, 12]: 8 µg/mL; MIC P. aeruginosa ATCC 27853 [4, 13]: 16 µg/mL"
[N-]=[N+]=NCCCC[C@@H]1NC(=O)[C@H](Cc2ccccc2)NC(=O)[C@H](CCCNC(=N)N)NC(=O)[C@H](Cc2ccc(-c3ccccc3)cc2)NC(=O)[C@H](Cc2ccc(-c3ccccc3)cc2)NC(=O)[C@H](CCCNC(=N)N)NC1=O [2d] (cyclo(R[Bip][Bip]RF[Lys(N3)])),4,2,2,2,2,2,2,2,2,8,4,4,4,4,8,4,4,4,64,64,"Antimicrobial Activity (MIC) S. epidermidis [1]; 1457: 2 µg/mL; Antimicrobial Activity (MIC) S. aureus [2]: 4 µg/mL; Antimicrobial Activity (MIC) E. coli [3]: 64 µg/mL; MIC E. coli ATCC 25922 [3, 7]: 64 µg/mL; MIC E. coli ATCC 25922 [3, 8]: 64 µg/mL; MIC E. coli ATCC 25922 [3, 9]: 64 µg/mL; MIC E. coli ATCC 25922 [3, 10]: 32 µg/mL; MIC E. coli ATCC 25922 [3, 11]: 64 µg/mL; MIC E. coli ATCC 25922 [3, 12]: 64 µg/mL; MIC E. coli ATCC 25922 [3, 13]: 32 µg/mL; Antimicrobial Activity (MIC) P. aeruginosa [4]: 256 µg/mL; MIC P. aeruginosa ATCC 27853 [4, 5]: 256 µg/mL; MIC P. aeruginosa ATCC 27853 [4, 6]: 256 µg/mL; MIC P. aeruginosa ATCC 27853 [4, 7]: 256 µg/mL; MIC P. aeruginosa ATCC 27853 [4, 8]: 256 µg/mL; MIC P. aeruginosa ATCC 27853 [4, 9]: 256 µg/mL; MIC P. aeruginosa ATCC 27853 [4, 10]: 256 µg/mL; MIC P. aeruginosa ATCC 27853 [4, 11]: 256 µg/mL; MIC P. aeruginosa ATCC 27853 [4, 12]: 256 µg/mL; MIC P. aeruginosa ATCC 27853 [4, 13]: 256 µg/mL"
"N3-PEG200-RWWRF [1a, azidopeptide N3-PEG200-RWWRF, PEG200-linked, amidated C-terminus]",32,32,32,32,32,32,32,32,32,64,64,64,64,64,64,64,64,64,128,256,"Antimicrobial Activity (MIC) S. epidermidis [1, 14]: 32 µg/mL; Antimicrobial Activity (MIC) S. aureus [2, 15]: 64 µg/mL; Antimicrobial Activity (MIC) E. coli [3, 16]: 256 µg/mL; MIC E. coli ATCC 25922 [3, 7]: 256 µg/mL; MIC E. coli ATCC 25922 [3, 8]: 128 µg/mL; MIC E. coli ATCC 25922 [3, 9]: 256 µg/mL; MIC E. coli ATCC 25922 [3, 10]: 256 µg/mL; MIC E. coli ATCC 25922 [3, 11]: 128 µg/mL; MIC E. coli ATCC 25922 [3, 12]: 256 µg/mL; MIC E. coli ATCC 25922 [3, 13]: 256 µg/mL; Antimicrobial Activity (MIC) P. aeruginosa [4, 16]: 256 µg/mL; MIC P. aeruginosa ATCC 27853 [4, 5]: 256 µg/mL; MIC P. aeruginosa ATCC 27853 [4, 6]: 256 µg/mL; MIC P. aeruginosa ATCC 27853 [4, 7]: 256 µg/mL; MIC P. aeruginosa ATCC 27853 [4, 8]: 256 µg/mL; MIC P. aeruginosa ATCC 27853 [4, 9]: 256 µg/mL; MIC P. aeruginosa ATCC 27853 [4, 10]: 256 µg/mL; MIC P. aeruginosa ATCC 27853 [4, 11]: 256 µg/mL; MIC P. aeruginosa ATCC 27853 [4, 12]: 256 µg/mL; MIC P. aeruginosa ATCC 27853 [4, 13]: 256 µg/mL"
"N3-PEG400-RBBRF [2b, azidopeptide N3-PEG400-RBBRF, B = biphenylalanine, amidated C-terminus]",16,16,16,16,16,16,16,16,16,16,32,16,16,32,32,16,32,32,128,128,"Antimicrobial Activity (MIC) S. epidermidis [1, 14]: 16 µg/mL; Antimicrobial Activity (MIC) S. aureus [2, 15]: 32 µg/mL; Antimicrobial Activity (MIC) E. coli [3, 16]: 128 µg/mL; MIC E. coli ATCC 25922 [3, 7]: 128 µg/mL; MIC E. coli ATCC 25922 [3, 8]: 128 µg/mL; MIC E. coli ATCC 25922 [3, 9]: 128 µg/mL; MIC E. coli ATCC 25922 [3, 10]: 128 µg/mL; MIC E. coli ATCC 25922 [3, 11]: 128 µg/mL; MIC E. coli ATCC 25922 [3, 12]: 128 µg/mL; MIC E. coli ATCC 25922 [3, 13]: 128 µg/mL; Antimicrobial Activity (MIC) P. aeruginosa [4, 16]: 256 µg/mL; MIC P. aeruginosa ATCC 27853 [4, 5]: 128 µg/mL; MIC P. aeruginosa ATCC 27853 [4, 6]: 256 µg/mL; MIC P. aeruginosa ATCC 27853 [4, 7]: 256 µg/mL; MIC P. aeruginosa ATCC 27853 [4, 8]: 128 µg/mL; MIC P. aeruginosa ATCC 27853 [4, 9]: 256 µg/mL; MIC P. aeruginosa ATCC 27853 [4, 10]: 256 µg/mL; MIC P. aeruginosa ATCC 27853 [4, 11]: 128 µg/mL; MIC P. aeruginosa ATCC 27853 [4, 12]: 256 µg/mL; MIC P. aeruginosa ATCC 27853 [4, 13]: 256 µg/mL"
